# Where two headings read alike, the source gives them in different places.
# Assays:
# [1] = target: T1, glutathione S-transferase (GST)-fused full-length human Syk protein (Homo sapiens, UniProt P43405); assay: Syk enzyme assay; assay type: biochemical; details: Syk enzyme assay, Test Example 1; read-out: IC50 of Syk-inhibitory activity
# T1 construct: (GST)-fused full-length human Syk protein; GST (glutathione S-transferase); purchased Carna Biosciences
# Procedure, shortened: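 Baculovirus-expressed enzyme (1.2 ng) was preincubated with compound in HEPES pH 7.0/MgCl2/DTT buffer, 2 min shaking then 13 min at room temperature. Biotin-EDPDYEWPSA-NH2 (0.4 μM final) and ATP (27 μM final) were added for 40 min at room temperature. EDTA stop, streptavidin-XL/PT66-K TR-FRET at 615/665 nm gave IC50.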
# THP-1 cells = assay: TNFα generation assay; assay type: cell-based, human; details: Table 22, read-out: IC50 in TNFα generation assay
# Procedure, shortened: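 THP-1 cells differentiated to macrophage-like cells with 10 ng/ml IFN-γ for 2 days, preincubated with compound 30 min at room temperature, then cultured 7 h on plates coated with human IgG (10 μg/ml). Secreted TNFα measured by ELISA or AlphaLISA.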
# [2] = Homo sapiens, THP-1, THP-1 cells
SMILES,IC50 [1],IC50 (THP-1 cells; [2]),IC50 (THP-1 cells; THP-1 cells)
"Cc1cncc(Nc2nc(N[C@@H]3CCCC[C@@H]3N)c(F)cc2C(N)=O)c1 [Example 006-103, 6-(((1R,2S)-2-aminocyclohexyl)amino)-5-fluoro-2-((5-methylpyridin-3-yl)amino)nicotinamide]",< 10 nM,< 65 nM,–
"Cn1ncc2cc(Nc3nc(NC[C@@H](N)c4ccccc4)c(F)cc3C(N)=O)ccc21 [Example 006-119, (S)-6-((2-amino-2-phenylethyl)amino)-5-fluoro-2-((1-methyl-1H-indazol-5-yl)amino)nicotinamide]",10 to 50 nM,130 to 200 nM,–
"NC[C@H](Nc1nc(Nc2cccc(-n3nccn3)c2)c(C(N)=O)cc1F)c1ccccc1 [Example 006-132, (R)-2-((3-(2H-1,2,3-triazol-2-yl)phenyl)amino)-6-((2-amino-1-phenylethyl)amino)-5-fluoronicotinamide]",< 10 nM,130 to 200 nM,–
"CC(C)C[C@H](CN)Nc1nc(Nc2ccc3c(cnn3C)c2)c(C(N)=O)cc1F [Example 006-142, (R)-6-((1-amino-4-methylpentan-2-yl)amino)-5-fluoro-2-((1-methyl-1H-indazol-5-yl)amino)nicotinamide]",< 10 nM,< 65 nM,–
"CC(C)C[C@H](CN)Nc1nc(Nc2cncc(C3CC3)c2)c(C(N)=O)cc1F [Example 006-144, (R)-6-((1-amino-4-methylpentan-2-yl)amino)-2-((5-cyclopropylpyridin-3-yl)amino)-5-fluoronicotinamide]",< 10 nM,65 to 130 nM,–
"CCOc1cc(Nc2nc(N[C@@H](CN)CC(C)C)c(F)cc2C(N)=O)ccn1 [Example 006-145, (R)-6-((1-amino-4-methylpentan-2-yl)amino)-2-((2-ethoxypyridin-4-yl)amino)-5-fluoronicotinamide]",< 10 nM,65 to 130 nM,–
"CC(C)C[C@H](CN)Nc1nc(Nc2ccc3scnc3c2)c(C(N)=O)cc1F [Example 006-147, (R)-6-((1-amino-4-methylpentan-2-yl)amino)-2-(benzo[d]thiazol-5-ylamino)-5-fluoronicotinamide]",< 10 nM,130 to 200 nM,–
"CC(C)C[C@H](CN)Nc1nc(Nc2ccnc(-n3cncn3)c2)c(C(N)=O)cc1F [Example 006-153, (R)-2-((2-(1H-1,2,4-triazol-1-yl)pyridin-4-yl)amino)-6-((1-amino-4-methylpentan-2-yl)amino)-5-fluoronicotinamide]",< 10 nM,< 65 nM,–
"CC(C)C[C@H](CN)Nc1nc(Nc2ccnc(-n3nccn3)c2)c(C(N)=O)cc1F [Example 006-154, (R)-2-((2-(2H-1,2,3-triazol-2-yl)pyridin-4-yl)amino)-6-((1-amino-4-methylpentan-2-yl)amino)-5-fluoronicotinamide]",< 10 nM,65 to 130 nM,–
"CC(C)C[C@H](CN)Nc1nc(Nc2ccnc(-c3ccoc3)c2)c(C(N)=O)cc1F [Example 006-155, (R)-6-((1-amino-4-methylpentan-2-yl)amino)-5-fluoro-2-((2-(furan-3-yl)pyridin-4-yl)amino)nicotinamide]",< 10 nM,65 to 130 nM,–
"COc1cc(Nc2nc(N[C@@H](CN)CC(C)C)c(F)cc2C(N)=O)cc(OC)n1 [Example 006-156, (R)-6-((1-amino-4-methylpentan-2-yl)amino)-2-((2,6-dimethoxypyridin-4-yl)amino)-5-fluoronicotinamide]",< 10 nM,130 to 200 nM,–
"NC(=O)c1cc(F)c(N[C@@H]2CCCC[C@@H]2N)nc1Nc1cncc(-c2ccccc2F)c1 [Example 006-166, 6-(((1R,2S)-2-aminocyclohexyl)amino)-5-fluoro-2-((5-(2-fluorophenyl)pyridin-3-yl)amino)fluoronicotinamide]",< 10 nM,–,< 65 nM
"CCCOc1cc(Nc2nc(N[C@@H]3CCCC[C@@H]3N)c(F)cc2C(N)=O)ccn1 [Example 006-169, 6-(((1R,2S)-2-aminocyclohexyl)amino)-5-fluoro-2-((2-propoxypyridin-4-yl)amino)nicotinamide]",< 10 nM,< 65 nM,–
"COc1ccc2cc(Nc3nc(N[C@@H]4CCCC[C@@H]4N)c(F)cc3C(N)=O)cnc2c1 [Example 006-172, 6-(((1R,2S)-2-aminocyclohexyl)amino)-5-fluoro-2-((7-methoxyquinolin-3-yl)amino)nicotinamide]",< 10 nM,–,65 to 130 nM

# Next, values leading:
IC50 [1],IC50 (THP-1 cells; [2]),IC50 (THP-1 cells; THP-1 cells),SMILES
10 to 50 nM,65 to 130 nM,–,"C[C@H](CN)Nc1nc(Nc2ccc3c(cnn3C)c2)c(C(N)=O)cc1F [Example 006-102, (R)-6-((1-aminopropan-2-yl)amino)-5-fluoro-2-((1-methyl-1H-indazol-5-yl)amino)nicotinamide]"
< 10 nM,65 to 130 nM,–,"Cc1ccc(Nc2nc(N[C@@H]3CCCC[C@@H]3N)c(F)cc2C(N)=O)cn1 [Example 006-104, 6-(((1R,2S)-2-aminocyclohexyl)amino)-5-fluoro-2-((6-methylpyridin-3-yl)amino)nicotinamide]"
10 to 50 nM,–,65 to 130 nM,Cc1cncc(Nc2nc(N[C@H](C)[C@H](C)N)c(F)cc2C(N)=O)c1 [Example 006-108]
< 10 nM,–,65 to 130 nM,C[C@H](N)[C@@H](C)Nc1nc(Nc2cccc3ncccc23)c(C(N)=O)cc1F [Example 006-110]
< 10 nM,< 65 nM,–,"NC(=O)c1cc(F)c(N[C@@H]2CCCC[C@@H]2N)nc1Nc1cncc(-c2ccccc2)c1 [Example 006-113, 6-(((1R,2S)-2-aminocyclohexyl)amino)-5-fluoro-2-((5-phenylpyridin-3-yl)amino)nicotinamide]"
< 10 nM,65 to 130 nM,–,"COc1cc(Nc2nc(N[C@@H]3CCCC[C@@H]3N)c(F)cc2C(N)=O)cc(OC)n1 [Example 006-114, 6-(((1R,2S)-2-aminocyclohexyl)amino)-2-((2,6-dimethoxypyridin-4-yl)amino)-5-fluoronicotinamide]"
10 to 50 nM,130 to 200 nM,–,"COc1cc(Nc2nc(N[C@@H](CN)c3ccccc3)c(F)cc2C(N)=O)ccn1 [Example 006-133, (R)-6-((2-amino-1-phenylethyl)amino)-5-fluoro-2-((2-methoxypyridin-4-yl)amino)nicotinamide]"
< 10 nM,130 to 200 nM,–,"CC(C)C[C@H](CN)Nc1nc(Nc2ccnc(-n3ccnn3)c2)c(C(N)=O)cc1F [Example 006-143, (R)-2-((2-(1H-1,2,3-triazol-1-yl)pyridin-4-yl)amino)-6-((1-amino-4-methylpentan-2-yl)amino)-5-fluoronicotinamide]"
< 10 nM,–,< 65 nM,"NC(=O)c1cc(F)c(N[C@@H]2CCCC[C@@H]2N)nc1Nc1ccnc(-n2nccn2)c1 [Example 006-146, 2-((2-(2H-1,2,3-triazol-2-yl)pyridin-4-yl)amino)-6-(((1R,2S)-2-aminocyclohexyl)amino)-5-fluoronicotinamide]"
< 10 nM,130 to 200 nM,–,"Cc1cnc2cc(Nc3nc(N[C@@H](CN)CC(C)C)c(F)cc3C(N)=O)ccc2n1 [Example 006-148, (R)-6-((1-amino-4-methylpentan-2-yl)amino)-5-fluoro-2-((2-methylquinoxalin-6-yl)amino)nicotinamide]"
< 10 nM,130 to 200 nM,–,"CC(C)CC(Nc1nc(Nc2ccc3ncccc3c2)c(C(N)=O)cc1F)[C@H](C)N (stereo partly drawn) [Example 006-159, 6-(((2S)-2-amino-5-methylhexan-3-yl)amino)-5-fluoro-2-(quinolin-6-ylamino)nicotinamide]"
< 10 nM,65 to 130 nM,–,"CC(C)[C@H](CN)Nc1nc(Nc2ccc3ncccc3c2)c(C(N)=O)cc1F [Example 006-160, (R)-6-((1-amino-3-methylbutan-2-yl)amino)-5-fluoro-2-(quinolin-6-ylamino)nicotinamide]"
< 10 nM,< 65 nM,–,"CCC[C@H](CN)Nc1nc(Nc2ccc3ncccc3c2)c(C(N)=O)cc1F [Example 006-161, (R)-6-((1-aminopentan-2-yl)amino)-5-fluoro-2-(quinolin-6-ylamino)nicotinamide]"
< 10 nM,< 65 nM,–,"NC(=O)c1cc(F)c(N[C@@H]2CCCC[C@@H]2N)nc1Nc1cncc(C2CC2)c1 [Example 006-167, 6-(((1R,2S)-2-aminocyclohexyl)amino)-2-((5-cycylopropylpyridin-3-yl)amino)-5-fluoronicotinamide]"
< 10 nM,–,< 65 nM,"NC(=O)c1cc(F)c(N[C@@H]2CCCC[C@@H]2N)nc1Nc1cncc(-n2cccn2)c1 [Example 006-168, 2-((5-(1H-pyrazol-1-yl)pyridin-3-yl)amino)-6-(((1R,2S)-2-aminocyclohexyl)amino)-5-fluoronicotinamide]"
< 10 nM,65 to 130 nM,–,"CC(C)C[C@H](CN)Nc1nc(Nc2cncc(-n3cccn3)c2)c(C(N)=O)cc1F [Example 006-170, (R)-2-((5-(1H-pyrazol-1-yl)pyridin-3-yl)amino)-6-((1-amino-4-methylpentan-2-yl)amino)-5-fluoronicotinamide]"
< 10 nM,65 to 130 nM,–,"COc1ccc2cc(Nc3nc(N[C@@H](CN)CC(C)C)c(F)cc3C(N)=O)cnc2c1 [Example 006-176, (R)-6-((1-amino-4-methylpentan-2-yl)amino)-5-fluoro-2-((7-methoxyquinolin-3-yl)amino)nicotinamide]"
< 10 nM,< 65 nM,–,"CC[C@@H](Nc1nc(Nc2ccc3ncccc3c2)c(C(N)=O)cc1F)[C@H](C)N [Example 006-178, 6-(((2S,3R)-2-aminopentan-3-yl)amino)-5-fluoro-2-((quinolin-6-yl)amino)nicotinamide]"

# Source: patent US8895585B2, “Nicotinamide derivative or salt thereof” (FUJIFILM Corporation, priority 2010, dated 2014)
